Data published in patent US9862693B2, “Compounds and methods of treating cancer” (The Regents of the University of California, priority 2012, dated 2018).
“Also recorded” adds a separate entry of the source. Counter-ions that a name gives are not always drawn.

What was measured:
PANC-1 cells = experiment: Pancreatic cancer cell proliferation in vitro (cell counts); assay type: cell-based, human; conditions: 0.01, 0.1 and 1 mM, 72 hrs, 1% FBS, P<0.01, hydrochloride
Description: FIG. 5. […] Cells were counted and plated. At 24 hrs after plating, cells were treated with metformin and JD003 at 0.01 mM, 0.1 mM, and 1 mM concentrations using medium with 1% FBS. After 72 hrs, cell proliferation was quantitated based on cell counts. Experiments were done 3-times, with results expressed as percent control (mean±SE).
We hypothesize that metformin analogs can be prepared with enhanced anticancer activity and minimal non-target toxicity. […] Human pancreatic cancer cells PANC-1, were grown in DMEM with 2 mM glutamine, 1 mM sodium pyruvate, 100 units/mL penicillin, 100 μg/mL streptomycin and 10% FBS at 37 C in a humidified atmosphere with 10% CO2. Then, effects of treatment with metformin or analog JD003 on cell proliferation in vitro were tested. […] To find if analogs may have deleterious effects on normal human cells, we compared the cellular activity of metformin with that of analogs JD003 and JD004 using a pair of human breast epithelial cells. These included human mammary epithelial cells (HMEC) and MCF-7 tumor cells (MCF-7). […] In contrast, minimal antiproliferative effects are detected in nonmalignant human epithelial cells.

MCF7 = experiment: MTS cell number assay (CellTiter 96), ER+ breast cancer cells; assay type: cell-based; conditions: Homo sapiens, 1 mM, 72 hours, MTS method, read-out: ER+ BC MCF7, cell numbers as percentage of vehicle treated controls
Description: FIG. 1. Metformin analogues inhibit growth/survival of ER+ MCF7 breast cancer cells. MCF7 cells were cultured in medium containing different concentrations of metformin and analogues (0.1, 1 and 5 mM). After 3 days, the percentage of surviving cells relative to controls, defined as 100% survival, was determined by the MTS assay. Data represents three independent experiments.
Compounds described herein (e.g. metformin derivatives and/or analogues) were tested in human MCF-7 breast cancer cells, a standard ERalpha-positive model of breast malignancy (FIG. 1), and in four different cell lines classified as TNBC, including MDA-MB-231, HCC1937, HCC38 and HCC1806 (FIGS. 2A-2D). […] Experiments were also performed in: 1) a non-small cell lung cancer cell line that is known to be resistant to standard chemotherapy (A549); and 2) a melanoma-like cell model (MDA-MB-435). To find if analogues have effects on normal cells compounds were tested in two different types of cells, human umbilical vein endothelial cells (HUVEC) and human mammary epithelial cells (HMEC). The effects of metformin (MET) were compared with compounds JD001-JD009.
(§1) Cells were incubated in the presence of vehicle, metformin or metformin analogues for 72 hours in their respective media. After treatment cell numbers were determined with the MTS method using the CellTiter 96 Aqueous Non-Radioactive Cell Proliferation Assay (Promega). Numbers express percentage of vehicle treated controls at 1 mM concentration metformin or metformin analogues (JD001-JD009). TNBC: Triple Negative Breast Cancer Cells, ER+BC: Estrogen receptor positive breast cancer.

HMEC = experiment: MTS cell number assay (CellTiter 96), normal cells; assay type: cell-based; conditions: Homo sapiens, 1 mM, 72 hours, MTS method, read-out: Biodata Normal HMEC, cell numbers as percentage of vehicle treated controls
Description: (§2) FIGS. 4A-4B. Effects of metformin and metformin analogues on normal cells. HMEC (FIG. 4A) and HUVEC (FIG. 4B) cells were plated in special media. After 24 hours, cells were treated with increasing concentrations of metformin and analogues JD001-JD009 (0.1, 1 and 5 mM). After 3 days, MTS assay was performed. Survival is expressed as percentage of vehicle treated control. Data represents at least two experiments.
(§3) The effects of compounds described herein (including embodiments) (e.g. metformin analogues) were determined on two types of normal nonmalignant human cells, human umbilical vein endothelial cells (HUVEC) and human mammary epithelial cells (HMEC). There were no significant biologic effects noted on exposure to the metformin analogues.
as §1

HUVEC = experiment: MTS cell number assay (CellTiter 96), normal cells; assay type: cell-based; conditions: Homo sapiens, 1 mM, 72 hours, MTS method, read-out: Biodata Normal HUVEC, cell numbers as percentage of vehicle treated controls
Description: as §2, §3, §1

MDA-MB-231 = experiment: MTS cell number assay (CellTiter 96), TNBC cells; assay type: cell-based; conditions: Homo sapiens, 1 mM, 72 hours, MTS method, read-out: Biodata TNBC MDA-MB-231, cell numbers as percentage of vehicle treated controls
Description: (§4) FIGS. 2A-2D. Metformin analogues inhibit growth/survival of triple negative breast cancer cells. MDA-MB-231 (FIG. 2A), HCC38 (FIG. 2B), HCC1937 (FIG. 2C) and HCC1806 (FIG. 2D) cells were cultured in medium containing 1% fetal bovine serum and increasing concentrations of metformin and analogues JD001-JD009 (0.1, 1 and 5 mM). After 3 days, MTS assay was performed. The percentage of surviving cells relative to controls, defined as 100% survival, was determined by the MTS assay.
as §1

HCC1937 = experiment: MTS cell number assay (CellTiter 96), TNBC cells; assay type: cell-based; conditions: 1 mM, 72 hours, MTS method
Description: as §4, §1

MCF-7 cells = experiment: Cell proliferation ELISA, BrdU colorimetric kit; assay type: cell-based, human; conditions: 0.1 mM and 1 mM, BrdU incorporation, 1% FBS, P<0.01; hydrochloride
Description: FIGS. 6A-6C. […] Proliferation was assessed using cell proliferation ELISA, BrdU colorimetric kit (Roche). Cells were counted using a hemocytometer and plated. After 24 hrs, cells were treated with metformin and analogs JD003 and JD004 at 0.1 mM and 1 mM doses using phenol-red free medium with 1% FBS. After 48 hr, BrDU labeling solution was added and incubated for 24 h. Proliferation was assessed using BrDU incorporation by ELISA during DNA synthesis in proliferating cells. Data shown as % control (mean±SE) (n=3 experiments).
We hypothesize that metformin analogs can be prepared with enhanced anticancer activity and minimal non-target toxicity. […] Human pancreatic cancer cells PANC-1, were grown in DMEM with 2 mM glutamine, 1 mM sodium pyruvate, 100 units/mL penicillin, 100 μg/mL streptomycin and 10% FBS at 37 C in a humidified atmosphere with 10% CO2. Then, effects of treatment with metformin or analog JD003 on cell proliferation in vitro were tested. […] In contrast, minimal antiproliferative effects are detected in nonmalignant human epithelial cells. […]
Cell proliferation screening assays were done using cell proliferation ELISA, BrdU colorimetric kit (Roche). Cells were counted using a hemocytometer and plated in 96-well plates. […] Cell proliferation were quantitated based on measures of BrDU incorporation (by ELISA) during DNA synthesis in proliferating cells. […] Results were expressed as mean±SE. […]

MDA-MB-435 = experiment: MTS cell number assay (CellTiter 96), melanoma cells; assay type: cell-based; conditions: 1 mM, 72 hours, MTS method
Description: (§5) FIGS. 3A-3B. Metformin analogues inhibit survival of non-small cell lung cancer (NSCLC) (FIG. 3A) and melanoma cell lines (FIG. 3B). A549 (NSCLC) and MDA-MB-435 (melanoma) cells were cultured in medium containing 1% fetal bovine serum and increasing concentrations of metformin (MET) and analogues JD001-JD007 (0.1, 1 and 5 mM). After 3 days, MTS assay was performed. Survival is expressed as percentage of control defined at 100%.
as §1

A549 = experiment: MTS cell number assay (CellTiter 96), NSCLC cells; assay type: cell-based; conditions: Homo sapiens, 1 mM, 72 hours, MTS method, read-out: Biodata extra A549, cell numbers as percentage of vehicle treated controls
Description: as §5, §1

[1] = system: MIAPaCa-2 and PANC-1 cells xenografted in nude mice; conditions: reported; cited from earlier work
HCC1806 = experiment: MTS cell number assay (CellTiter 96), TNBC cells; assay type: cell-based; conditions: 1 mM, 72 hours, MTS method
Description: as §4, §1

HCC38 = experiment: MTS cell number assay (CellTiter 96), TNBC cells; assay type: cell-based; conditions: 1 mM, 72 hours, MTS method
Description: as §4, §1

[2] = system: triple-negative breast cancer cell lines; conditions: literature refs (2,3); cited from earlier work

| Compound | Inhibition of pancreatic cancer cell proliferation compared with metformin (PANC-1 cells) | viability at 1000 µM (MCF7) | viability at 1000 µM (HMEC) | viability at 1000 µM (HUVEC) | viability at 1000 µM (MDA-MB-231) | Biodata TNBC HCC1937, cell numbers as percentage of vehicle treated controls (HCC1937) | Blocking proliferation of MCF-7 cells compared with metformin (MCF-7 cells) | Biodata extra MDA-MB-435, cell numbers as percentage of vehicle treated controls (MDA-MB-435) | viability at 1000 µM (A549) | Growth of xenografted pancreatic cancer cells [1] | Biodata TNBC HCC1806, cell numbers as percentage of vehicle treated controls (HCC1806) | Biodata TNBC HCC38, cell numbers as percentage of vehicle treated controls (HCC38) | Antitumor activity against triple-negative breast cancer cell lines [2] |
| --- | --- | --- | --- | --- | --- | --- | --- | --- | --- | --- | --- | --- | --- |
| N=C(NC(=N)N1CCOCC1)N1CCOCC1 [JD003, N-(Imino(morpholino)methyl)morpholine-4-carboximidamide hydrochloride] | significantly greater inhibition of pancreatic cancer cell proliferation in vitro than parent compound metformin; also recorded: shows promise as a congener with more potent antitumor activity | 61.3% | 107% | 86.7% | 93.2% | 37.8 percentage of vehicle treated controls | more effective in blocking proliferation of MCF-7 cells; also recorded: enhanced antiproliferative activity in breast cancer cells as compared to metformin | 50.4 percentage of vehicle treated controls | 98% | – | – | – | – |
| CN(C)C(=N)NC(=N)N [Metformin (000), 1,1-dimethyl-biguanide hydrochloride, reference compound] | – | 105% | 99.8% | 83.9% | 110% | 92.9 percentage of vehicle treated controls | – | 77.7 percentage of vehicle treated controls | 72.2% | significantly decrease growth | 90.2 percentage of vehicle treated controls | 92.5 percentage of vehicle treated controls | only at high millimolar concentrations |
